Reference: ChEMBL document CHEMBL4422697, “Structural Characterization of Cranberry Arabinoxyloglucan Oligosaccharides” (J Nat Prod, 2019)
The source made the active and inactive calls. The calls are words filed in the database; no cut-off is given here.

Legend:
Staphylococcus aureus [1] = assay: Growth inhibition of methicillin-[…] Staphylococcus aureus ATCC 33591 at 50 ug/ml relative to control; assay type: organism-based; settings: in vivo
Candida albicans = assay: Growth inhibition of Candida albicans ATCC 90028 at 50 ug/ml relative to control; assay type: organism-based; settings: in vivo
Pseudomonas aeruginosa = assay: Growth inhibition of Pseudomonas aeruginosa ATCC 27853 at 50 ug/ml relative to control; assay type: organism-based; settings: in vivo
[2] = tested on: Mycobacterium intracellulare; assay: Growth inhibition of Mycobacterium intracellulare ATCC 23068 at 50 ug/ml relative to control; assay type: organism-based; settings: in vivo
Staphylococcus aureus [3] = assay: Growth inhibition of Staphylococcus aureus ATCC 29213 at 50 ug/ml relative to control; assay type: organism-based; settings: in vivo
Escherichia coli [4] = assay: Growth inhibition of Escherichia coli ATCC 35218 at 50 ug/ml relative to control; assay type: organism-based; settings: in vivo
MDA-MB-231 = assay: Cytotoxicity against human MDA-MB-231 cells assessed as reduction in cell viability at 10 to 100 uM after 48 hrs by sulforhodamine B assay; assay type: cell-based; settings: mda-mb-231, 48 h
Escherichia coli [5] = assay: Antiadhesive activity against P-fimbriated Escherichia coli ATCC 700928 assessed as inhibition of bacterial adhesion to human HTB4 cells incubated for 30 mins in presence of [3H]uridine prior to infection measured after 1 hr by scintillation counting method; assay type: functional, organism-based
Aspergillus fumigatus = assay: Growth inhibition of Aspergillus fumigatus ATCC 204305 at 50 ug/ml relative to control; assay type: organism-based; settings: in vivo
T47D = assay: Cytotoxicity against human T47D cells assessed as reduction in cell viability at 10 to 100 uM after 48 hrs by sulforhodamine B assay; assay type: cell-based
Cryptococcus neoformans = assay: Growth inhibition of Cryptococcus neoformans ATCC 90113 at 50 ug/ml relative to control; assay type: organism-based; settings: in vivo
Plasmodium falciparum = assay: Growth inhibition of Plasmodium falciparum D6 at 15.9 ug/ml relative to control; assay type: organism-based; settings: in vivo
Leishmania donovani = assay: Growth inhibition of Leishmania donovani at 80 ug/ml relative to control; assay type: organism-based; settings: in vivo
Nakaseomyces glabratus = assay: Growth inhibition of Candida glabrata ATCC 90030 at 50 ug/ml relative to control; assay type: organism-based; settings: in vivo
Pichia kudriavzevii = assay: Growth inhibition of Candida krusei ATCC 6258 at 50 ug/ml relative to control; assay type: organism-based; settings: in vivo

| Compound | growth inhibition (GI) (Staphylococcus aureus [1]) [%] | growth inhibition (GI) (Candida albicans) [%] | growth inhibition (GI) (Pseudomonas aeruginosa) [%] | growth inhibition (GI) [2] [%] | growth inhibition (GI) (Staphylococcus aureus [3]) [%] | growth inhibition (GI) (Escherichia coli [4]) [%] | Activity (MDA-MB-231) | inhibition (Escherichia coli [5]) | growth inhibition (GI) (Aspergillus fumigatus) [%] | Activity (T47D) | growth inhibition (GI) (Cryptococcus neoformans) [%] | growth inhibition (GI) (Plasmodium falciparum) [%] | growth inhibition (GI) (Leishmania donovani) [%] | growth inhibition (GI) (Nakaseomyces glabratus) [%] | growth inhibition (GI) (Pichia kudriavzevii) [%] |
| --- | --- | --- | --- | --- | --- | --- | --- | --- | --- | --- | --- | --- | --- | --- | --- |
| OC[C@@H]1O[C@@H](O[C@H]2[C@@H](OC[C@H]3O[C@@H](O)[C@H](O)[C@@H](O)[C@@H]3O[C@@H]3O[C@H](CO)[C@@H](O[C@@H]4O[C@H](COC5OC[C@@H](O)[C@H](O)[C@H]5O[C@@H]5O[C@@H](CO)[C@H](O)[C@H]5O)[C@@H](O[C@@H]5O[C@H](CO)[C@@H](O)[C@H](O)[C@H]5O)[C@H](O)[C@H]4O)[C@H](O)[C@H]3O)OC[C@@H](O)[C@@H]2O)[C@H](O)[C@H]1O (single isomer, unassigned) | < 50 | < 50 | < 50 | < 50 | < 50 | < 50 | Non-Toxic | inactive | < 50 | Non-Toxic | < 50 | < 50 | < 50 | < 50 | < 50 |
| OC[C@@H]1O[C@@H](O[C@H]2[C@@H](OC[C@H]3O[C@@H](O)[C@H](O)[C@@H](O)[C@@H]3O[C@@H]3O[C@H](CO)[C@@H](O[C@@H]4O[C@H](COC5OC[C@@H](O)[C@H](O)[C@H]5O)[C@@H](O[C@@H]5O[C@H](CO)[C@@H](O)[C@H](O)[C@H]5O)[C@H](O)[C@H]4O)[C@H](O)[C@H]3O)OC[C@@H](O)[C@@H]2O)[C@H](O)[C@H]1O (single isomer, unassigned) | < 50 | < 50 | < 50 | < 50 | < 50 | < 50 | Non-Toxic | inactive | < 50 | Non-Toxic | < 50 | < 50 | < 50 | < 50 | < 50 |
